# Values of other authors in patent US20130095160A1, “RESORBABLE POLYSTATIN BIOMATERIALS” (priority 2011, published 2013).
# Key:
# SR-BI receptor = molecular target: T1, SR-BI receptor (Homo sapiens, UniProt Q8WTV0); settings: via activation of the SR-BI receptor
# T1 sequence (Q8WTV0 1-552): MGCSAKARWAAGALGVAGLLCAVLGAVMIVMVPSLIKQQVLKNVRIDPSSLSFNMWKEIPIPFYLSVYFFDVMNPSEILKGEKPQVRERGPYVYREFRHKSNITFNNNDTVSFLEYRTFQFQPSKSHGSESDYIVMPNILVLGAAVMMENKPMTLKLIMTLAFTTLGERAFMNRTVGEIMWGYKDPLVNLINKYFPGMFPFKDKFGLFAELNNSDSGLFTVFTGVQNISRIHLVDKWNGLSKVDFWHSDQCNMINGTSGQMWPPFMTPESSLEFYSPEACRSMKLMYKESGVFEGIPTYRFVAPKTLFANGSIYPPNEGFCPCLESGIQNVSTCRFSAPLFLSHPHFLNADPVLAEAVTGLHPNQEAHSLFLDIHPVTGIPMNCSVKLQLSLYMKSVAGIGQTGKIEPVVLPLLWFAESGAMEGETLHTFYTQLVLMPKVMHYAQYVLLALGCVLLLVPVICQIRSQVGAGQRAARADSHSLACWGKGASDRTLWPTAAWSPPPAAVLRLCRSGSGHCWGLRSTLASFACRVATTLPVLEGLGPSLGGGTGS
# eNOS = settings: 12 mg (or 10(−5) M lovastatin); previously shown
smiles,measurement,setting,value
CC[C@H](C)C(=O)O[C@H]1C[C@@H](C)C=C2C=C[C@H](C)[C@H](CC[C@@H]3C[C@@H](O)CC(=O)O3)[C@H]21 [lovastatin],efficiency at generating EDNO compared with HDL,SR-BI receptor,more efficient than HDL
same,eNOS activation in vitro,eNOS,maximally effective
